Assay results as given in patent US20140093598A1, “COMPOUNDS AND EXTRACTS FROM GNETUM AFRICANUM AND ANTI-INFLAMMATORY ACTIVITY RELATED THERETO” (PHARMAFRI-CAN INC., priority 2010, published 2014).
Where two headings read alike, the source gives them in different places.

Assays:
[1] = tested on: LPS induced TNF-α production in RAW 264.7 cells; assay: LPS-induced TNF-α production in RAW 264.7 cells, ELISA of culture supernatants; format: cell-based; conditions: for IC50: Mus musculus, RAW264.7
Procedure: Cell culture supernatants were used for the determination of TNF-α production by ELISA (R&D systems).
RAW 264.7 cells were treated with G. africanum leaf and stem extracts (200 μg/ml) for 1 hour and were then induced with LPS (10 μg/ml) for 18 hr. Cell culture supernatants were used for the determination of TNF-α production by ELISA (R&D systems).
Methanol, ethyl acetate and 95% ethanol stem extracts were further analyzed in a dose dependent manner (25-200 μg/ml).

[2] = tested on: LPS induced TNF-α production in RAW 264.7 cells; conditions: reported by Iyori et al. 2008; cited from earlier work

IC50 ([1]; resveratrol 1 μM-100 μM, 1 hour pre-treatment, LPS 10 μg/ml for 18 hr, read-out: IC50, anti-inflammatory activity of resveratrol (FIG. 3)): 50 µM
IC50 ([1]; same value as 50 μM, restated in μg/ml, read-out: IC50, anti-inflammatory activity of resveratrol (FIG. 3), expressed by mass): 12 µg/mL
SMILES: Oc1ccc(/C=C/c2cc(O)cc(O)c2)cc1 [resveratrol, (E)-5-(4-hydroxystyryl)benzene-1,3-diol]
Inhibition of LPS-induced TNF-α production ([1]; resveratrol at 50 μM and 100 μM, FIG. 3A): inhibited LPS-induced TNF-α production
Inhibition of LPS induced TNF-α production [2]: could inhibit LPS induced TNF-α production
